From publication PMC9663578, “A fluorogenic probe for predicting treatment response in non-small cell lung cancer with EGFR-activating mutations” (Nature Communications, 2022)
Where “and” joins values, the source holds several entries; their conditions need not be identical. Equal values may be shown once.

How the values were obtained:
Hela cells = assay: FACS assay in cultured cells; settings: for HX103 dose-dependent signal (Supplementary Fig. 18): 20 µM = 100
Procedure: Briefly, the cultured cells were seeded on the petri dish and counted using Count star BioMed automated cell counter. Around 10^6 live-cells were collected and were pelleted (2000×g, 3 min), followed by washing with PBS (2x). Cells were then resuspended in PBS buffer containing 0.1% BSA (1 × 10^6 cells/mL). […] The cell suspension was resuspended in PBS and analyzed with a FACSVerse^TM flow cytometer (BD Biosciences, LSRFortessa). About 10,000 events per tube were analyzed and the mean fluorescence intensity was detected and analyzed.
(§2) For the FACS assay with EGFR antibody, around 10^6 live-cells were collected and washed with PBS (2x). The cells were fixed by 400 µL 4% paraformaldehyde for 15 min at room temperature, followed by permeabilization with 0.1% Triton X-100 for 10 min and blocking with 5% BSA for 30 min. […] The cells were then washed with 0.5% BSA/PBS (3x) and resuspended in 400 µL of 0.1% BSA/PBS. […] The resuspended cell suspension was then analyzed on a FACSVerseTM flow cytometer (BD Biosciences, LSRFortessa). Nonspecific fluorescence binding was omitted by Rabbit mAb IgG isotype control (#3900, CST, 1:100) and the corresponding mean fluorescence was subtracted from the signal measured with each primary antibody. About 10,000 events per tube were analyzed and the mean fluorescence intensity was detected and analyzed.
(§3) Subsequently, the treated cells were incubated for 30 min at 37 °C, followed by washing with PBS buffer three times. […] Finally, the co-stained cells were washed with 0.5% BSA/PBS for three times and resuspended in 400 µL of 0.1% BSA/PBS. The obtained cell suspension was ready for analysis. Nonspecific fluorescence binding was omitted by Rabbit mAb IgG isotype control (#3900, CST, 1:100) as described above.
(§4) Nonspecific fluorescence binding was omitted by Rabbit mAb IgG isotype control (#3900, CST, 1:100). […] After incubation for another 30 min at room temperature, the co-stained cells were washed with 0.5% BSA/PBS for three times and resuspended in 400 µL of 0.1% BSA/PBS. The obtained cell suspension was ready for analysis. Nonspecific fluorescence binding was omitted by Rabbit mAb IgG isotype control (#3900, CST, 1:100) as described above.
(§5) The cells were seeded on the petri dish and cultured at the normal condition with 10% FBS, and that was changed to serum-free condition for 24 h when the cells proliferated at ~80% confluence. […] Nonspecific fluorescence binding was omitted by Rabbit mAb IgG isotype control (#3900, CST, 1:100) as described above.

PC-9 cells = assay: FACS assay in cultured cells; settings: for HX103 dose-dependent signal (Supplementary Fig. 18): 20 µM = 100
Procedure: The FACS assay was performed according to the reported literatures[67],[68]. Briefly, the cultured cells were seeded on the petri dish and counted using Count star BioMed automated cell counter. Around 10^6 live-cells were collected and were pelleted (2000×g, 3 min), followed by washing with PBS (2x). Cells were then resuspended in PBS buffer containing 0.1% BSA (1 × 10^6 cells/mL). […] The cell suspension was resuspended in PBS and analyzed with a FACSVerse^TM flow cytometer (BD Biosciences, LSRFortessa). About 10,000 events per tube were analyzed and the mean fluorescence intensity was detected and analyzed.
as §2, §3, §4, §5

H1975 = assay: Western blot of EGFR activation and downstream AKT and ERK1/2 phosphorylation; type: cell-based, human; settings: for p-kinase / kinase pAKT/AKT / p-kinase / kinase pEGFR/EGFR / p-kinase / kinase pERK/ERK: Fig. 2h H1975, DMSO = 1, n=1-3
Procedure: (§1) Western blotting analysis was performed to investigate the expression of EGFR and downstream signaling pathway in various cancer cells. Cells were added at a density of 5 × 10^5 per well in six-well plates and serum-starved in DMEM without FBS. […] After a PBS washing step, the cells were harvested and lysed in RIPA lysis buffer (Thermo Scientific, #89900) on ice for 20 min. After sonication, cell lysates were centrifuged at 12,000×g at 4 °C for 20 min. The supernatant was collected and protein concentration was determined by a BCA protein quantitation kit (Vazyme) and normalized to 2 mg/mL. Subsequently, 20 µL of protein sample was loaded to each lane and resolved on a 10% SDS-PAGE gel. After that, proteins on the gel were transferred onto polyvinylidene difluoride (PVDF) membranes (0.45 µm, Amersham Bioscience). PVDF membranes were blocked with 5% BSA blocking solution for 2 h at room temperature, followed by incubation with different primary antibodies (4 °C, overnight), including EGFR (#4267, 1:1000), phospho-EGFR (#3777, 1:1000), Akt (#4685, 1:1000), phospho-Akt (#4060, 1:1000), ERK1/2 (#4695, 1:1000), phospho-ERK1/2 (#4370, 1:2000) and GAPDH (#5174, 1:2000). Next, the membranes were washed by TBST buffer (Tris buffer with 0.1% Tween-20) for three times, followed by incubation with anti-rabbit IgG (HRP-linked antibody, #7074, 1:5000) for 1 h at room temperature. Finally, the blots were washed in PBST and immunoreactive proteins were detected using a luminal solution with ECL enhancer and H2O2 by ChemiDoc MP (BioRad) with Image Lab 6.0 software. The band density of each band was quantified and normalized to that of the corresponding GAPDH band to correct the possible differences in the content of protein loading. Each experiment was repeated 3 times for statistical analysis, and uncropped blots are in Source Data.

HCC827 = assay: as above; type: cell-based, human
Procedure: as §1

Hela = assay: as above; type: cell-based, human; settings: HX103 0 to 10 µM, EGF 25 ng/mL
Procedure: as §1

A431 = assay: as above; type: cell-based, human
Procedure: as §1

A549 = assay: as above; type: cell-based, human; settings: for p-kinase / kinase pAKT/AKT / p-kinase / kinase pEGFR/EGFR / p-kinase / kinase pERK/ERK: Fig. 2j A549, DMSO = 1, n=1-3
Procedure: as §1

EGFR 19del = target: T1, EGFR 19del (Homo sapiens, UniProt P00533, DEL746-750); assay: Fluorescence turn-on response / titration of HX103 with recombinant EGFR;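 as to Fluorescence intensity at 570 nm: 100% is HX103 fluorescence with wild-type EGFR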;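 as to Fluorescence response of HX103 to EGFR 19del: ratio I over I0 of probe intensity with versus without protein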; type: binding; settings: for Fluorescence intensity, DEL19: Fig. 2c; for Fluorescence response of HX103 to EGFR 19del: Supplementary Fig. 2f
T1 construct: purchased Thermo Fisher PV6179
Procedure: (d) Fluorescence spectra change of HX103 (5 µ M) with increasing concentration of EGFR L858R
(e) Fluorescence spectra change of HX103 (5 µ M ) with
increasing concentration of EGFR 19del (0 to 6 µM) in PBS buffer. (f) Titration curve of HX103
(5 µM) with increasing concentration of EGFRs (0 to 6 µM). The apparent binding affinity (Kd)
The fluorescence titration curve was fitted on one -
site specific binding model. I and I0 represent the intensities of HX103 at 570 nm in the presence
and absence of protein. Data represent average val ues ± SD, n = 3 independent experiments per
dissolved in dimethyl sulfoxide (DMSO) to obtain stock solutions (10 mM). The prepared stock
solution was diluted in sodium phosphate buffer (PBS, 1 M, pH=7.4) to obtain the desired final
concentration solution, containing 0.1% (v/v) DMSO as a cosolvent.
and emission fluorescence spectra of the solution before/after addition o f different concentration
Data analysis：The obtained fluorescence intensity at 570 nm (Excitation wavelength was 440
nm) in each sample was normalized by using the fluorescence intensity of HX103 in the presence
of EGFR. Specifically, the fluorescence intensity of HX103 in the presence of EGFR wild-type
was set at 100% to normalized that of the remaining samples.

[1] = HX103 5 µM, 30 min, replicates n=1-3
[2] = concentration 0.3 (unit not given)
[3] = concentration 1 (unit not given)
[4] = concentration 3 (unit not given)
[5] = concentration 10 (unit not given)
[6] = Fig. 2i A431, concentration 0.3 (unit not given), DMSO = 1, n=1-3
[7] = Fig. 2i A431, concentration 1 (unit not given), DMSO = 1, n=1-3
[8] = Fig. 2i A431, concentration 3 (unit not given), DMSO = 1, n=1-3
[9] = Fig. 2i A431, concentration 10 (unit not given), DMSO = 1, n=1-3

## COc1cc2c(Nc3ccc(F)c(Cl)c3)ncnc2cc1OCCCNc1ccc(S(=O)(=O)N(C)C)c2nonc12 [HX103]
Hela cells; [1]
  normalized MFI of HX103 labeling: 54.5064% and 65.6652% and 60.0858%
Hela cells; HX103 5 µM, replicates n=1-3
  EGFR(+) HX103 (+) (%): 13.055% and 13.1% and 19.51%
Hela cells; Hela, AVE of n=3
  EGFR(+) HX103 (+) (%) AVE: 15.2217%
  HX103 (+) (%) AVE: 15.7267%
Hela cells; Hela, HX103 0.37 µM
  HX103 dose-dependent signal (Supplementary Fig. 18): 10.7485 and 20.011 and 16.0693
Hela cells; Hela, HX103 1.1 µM
  HX103 dose-dependent signal (Supplementary Fig. 18): 23.8614 and 34.4348 and 25.4882
Hela cells; Hela, HX103 3.3 µM
  HX103 dose-dependent signal (Supplementary Fig. 18): 36.4324 and 54.3602 and 56.4764
Hela cells; Hela, HX103 10 µM
  HX103 dose-dependent signal (Supplementary Fig. 18): 67.5297 and 65.6787 and 69.9637
Hela cells; Hela, HX103 15 µM
  HX103 dose-dependent signal (Supplementary Fig. 18): 106.382 and 89.2391 and 92.3446
Hela cells; Hela, HX103 20 µM
  HX103 dose-dependent signal (Supplementary Fig. 18): 100
Hela cells; Hela, HX103 alone or with Gefitinib, replicates n=1-3
  HX103 signal (Supplementary Fig. 7): 110.043 and 93.8574 and 96.1
Hela cells; Hela, replicates n=1-3
  EGFR(+) HX103 (+) (%): 19.51% and 13.055% and 13.1%
  HX103(+) (%): 15.88% and 13.1% and 18.2%
PC-9 cells; [1]
  normalized MFI of HX103 labeling: 81.9742% and 91.6309% and 86.8026%
PC-9 cells; HX103 5 µM, replicates n=1-3
  EGFR(+) HX103 (+) (%): 64.51% and 67.13% and 48.39%
PC-9 cells; PC-9, AVE of n=3
  EGFR(+) HX103 (+) (%) AVE: 60.01%
  HX103 (+) (%) AVE: 59.6433%
PC-9 cells; PC-9, HX103 0.37 µM
  HX103 dose-dependent signal (Supplementary Fig. 18): 18.3072 and 15.0075 and 16.6544
PC-9 cells; PC-9, HX103 3.3 µM
  HX103 dose-dependent signal (Supplementary Fig. 18): 59.5109 and 51.9447 and 55.7208
PC-9 cells; PC-9, HX103 10 µM
  HX103 dose-dependent signal (Supplementary Fig. 18): 68.1021 and 78.5978 and 73.3469
PC-9 cells; PC-9, HX103 15 µM
  HX103 dose-dependent signal (Supplementary Fig. 18): 80.0389 and 87.1198 and 83.5744
PC-9 cells; PC-9, HX103 20 µM
  HX103 dose-dependent signal (Supplementary Fig. 18): 100
PC-9 cells; PC-9, HX103 alone or with Gefitinib, replicates n=1-3
  HX103 signal (Supplementary Fig. 7): 103.242 and 99.7186 and 97.0394
PC-9 cells; PC-9, replicates n=1-3
  EGFR(+) HX103 (+) (%): 48.39% and 64.51% and 67.13%
  HX103(+) (%): 59.69% and 66.68% and 52.56%
H1975; [2]
  p-kinase / kinase pAKT/AKT: 0.698 and 0.724 and 0.636
  p-kinase / kinase pEGFR/EGFR: 0.558 and 0.543 and 0.573
  p-kinase / kinase pERK/ERK: 1.210 and 0.879 and 1.031
H1975; [3]
  p-kinase / kinase pAKT/AKT: 0.488 and 0.317
  p-kinase / kinase pEGFR/EGFR: 0.199 and 0.313 and 0.331
  p-kinase / kinase pERK/ERK: 0.535 and 0.443 and 0.459
H1975; [4]
  p-kinase / kinase pAKT/AKT: 0.579 and 0.573 and 0.560
  p-kinase / kinase pERK/ERK: 0.840 and 0.618 and 0.696
H1975; [5]
  p-kinase / kinase pAKT/AKT: 0.468 and 0.342 and 0.500
  p-kinase / kinase pEGFR/EGFR: 0.219 and 0.161 and 0.276
  p-kinase / kinase pERK/ERK: 0.660 and 0.681 and 0.939
H1975; HX103 0 to 10 µM, EGF 25 ng/mL
  effect on phosphorylation of EGFR and downstream proteins: a certain resistance
HCC827; Fig. 2g HCC827, concentration 0.3 (unit not given), DMSO = 1, n=1-3
  p-kinase / kinase pAKT/AKT: 0.4984 and 0.298 and 0.4432
HCC827; Fig. 2g HCC827, concentration 1 (unit not given), DMSO = 1, n=1-3
  p-kinase / kinase pAKT/AKT: 0.1684 and 0.1251 and 0.1468
HCC827; Fig. 2g HCC827, concentration 10 (unit not given), DMSO = 1, n=1-3
  p-kinase / kinase pERK/ERK: 0.1947 and 0.3677 and 0.3512
HCC827; HX103 0 to 10 µM, EGF 25 ng/mL
  effect on phosphorylation of EGFR and downstream proteins: inhibited the phosphorylation of EGFR and the downstream proteins
Hela
  effect on wild-type EGFR phosphorylation: significantly inhibited
A431; [6]
  p-kinase / kinase pAKT/AKT: 0.604 and 0.491 and 0.502
  p-kinase / kinase pERK/ERK: 0.593 and 0.802 and 0.793
A431; [7]
  p-kinase / kinase pAKT/AKT: 0.33 and 0.312 and 0.321
  p-kinase / kinase pERK/ERK: 0.301 and 0.442 and 0.417
A431; [8]
  p-kinase / kinase pAKT/AKT: 0.264 and 0.189 and 0.222
  p-kinase / kinase pERK/ERK: 0.169 and 0.13 and 0.175
A431; [9]
  p-kinase / kinase pAKT/AKT: 0.241 and 0.197 and 0.219
  p-kinase / kinase pEGFR/EGFR: 0.067 and 0.066 and 0.064
A431; HX103 0 to 10 µM, EGF 25 ng/mL
  effect on wild-type EGFR phosphorylation: significantly inhibited
A549; [2]
  p-kinase / kinase pAKT/AKT: 0.202 and 0.332 and 0.222
  p-kinase / kinase pEGFR/EGFR: 0.116 and 0.065 and 0.105
  p-kinase / kinase pERK/ERK: 0.558 and 0.86 and 0.689
A549; [3]
  p-kinase / kinase pAKT/AKT: 0.118 and 0.103 and 0.095
  p-kinase / kinase pERK/ERK: 0.486 and 0.455 and 0.485
A549; [4]
  p-kinase / kinase pEGFR/EGFR: 0.07 and 0.045 and 0.073
  p-kinase / kinase pERK/ERK: 0.34 and 0.535 and 0.512
A549; [5]
  p-kinase / kinase pAKT/AKT: 0.014 and 0.013 and 0.015
  p-kinase / kinase pERK/ERK: 0.39 and 0.424 and 0.512
A549; HX103 0 to 10 µM, EGF 25 ng/mL
  effect on wild-type EGFR phosphorylation: significantly inhibited
EGFR 19del; wavelength 666 nm
  Fluorescence intensity, DEL19: 6329.64
EGFR 19del; wavelength 669 nm
  Fluorescence intensity, DEL19: 5943.64
EGFR 19del; wavelength 671 nm
  Fluorescence intensity, DEL19: 5458.74
EGFR 19del; wavelength 673 nm
  Fluorescence intensity, DEL19: 4903.02
EGFR 19del; wavelength 676 nm
  Fluorescence intensity, DEL19: 4330.47
EGFR 19del; wavelength 678 nm
  Fluorescence intensity, DEL19: 3796.5
EGFR 19del; wavelength 681 nm
  Fluorescence intensity, DEL19: 3356.07
EGFR 19del; wavelength 683 nm
  Fluorescence intensity, DEL19: 3030.49
EGFR 19del; wavelength 686 nm
  Fluorescence intensity, DEL19: 2784.09
EGFR 19del; wavelength 688 nm
  Fluorescence intensity, DEL19: 2575.72
EGFR 19del; wavelength 690 nm
  Fluorescence intensity, DEL19: 2364.25
EGFR 19del; wavelength 693 nm
  Fluorescence intensity, DEL19: 2121.24
EGFR 19del; wavelength 695 nm
  Fluorescence intensity, DEL19: 1850.71
EGFR 19del; wavelength 698 nm
  Fluorescence intensity, DEL19: 1561.85
EGFR 19del; wavelength 700 nm
  Fluorescence intensity, DEL19: 1263.82
EGFR 19del; Fig. 2d, HX103 with EGFR 19del, n=1-3
  Fluorescence intensity at 570 nm: 101.138 and 103.905 and 84.1794
EGFR 19del; HX103 5 µM in PBS buffer (0.1% DMSO), 570 nm
  fluorescence turn-on response: high fluorescence
EGFR 19del; HX103 5 µM, EGFR 0 to 6 µM in PBS, one-site specific binding model, read-out: apparent binding affinity (Kd)
  Kd: 1100 ± 200 nM
EGFR 19del; EGFR 0.1 µM, n=1-3
  Fluorescence response of HX103 to EGFR 19del: 2.201 and 2.149 and 2.11
EGFR 19del; EGFR 1 µM, n=1-3
  Fluorescence response of HX103 to EGFR 19del: 5.519 and 5.544 and 5.826
EGFR 19del; EGFR 5 µM, n=1-3
  Fluorescence response of HX103 to EGFR 19del: 8.2406 and 9.498 and 10.3034
EGFR 19del; EGFR 6 µM, n=1-3
  Fluorescence response of HX103 to EGFR 19del: 10.0143 and 10.322 and 11.4127
